Laboratory results from patent US12281363B2, “Methods for detecting antiviral-drug resistant virus” (Secretary of State for Health and Social Care, priority 2018, dated 2025).
Like-named read-outs stand apart in the source and are kept apart here.

Test system: HSV-1
Assay: Plaque reduction assay, HSV-1 clinical isolates on Vero cells
Format: cell-based
Conditions: Human alphaherpesvirus 1, Vero
Excerpt: Viral isolates were used to infect a sub-confluent monolayer of Vero cells at a concentration of 75 or 50 plaque forming units (PFU) per well for HSV-1 and HSV-2, respectively. […] CMC medium typically used to create a semisolid interface and prevents indiscrimate viral spreading. Other materials (e.g. agar) may also be used to create this interface.
Cells were fixed with 10% formalin and stained with crystal violet before enumeration of the plaques (microscopic observation or use of fluorescent antibodies for detection is also suitable). The data obtained from these experiments were then expressed as percent inhibition of viral infectivity relative to the no drug control.
Definitions of phenotypic drug susceptibility classification as sensitive or resistant were as follows: ACV, <3 μM or >40 μM; PCV, <10 μM or >40 μM; CDV, <24 μM or >30 μM; FOS, <250 μM or >400 μM; and ACV, <6.5 μM or >40 μM; PCV, <38 μM or >40 μM; FOS, <250 μM or >400 μM for HSV-1 and HSV-2, respectively. Any IC50 values falling in between these sensitive and resistant cut-offs were reported as intermediate resistance.
The phenotype (i.e. reactivity to a drug) of the virus was characterised by the plaque reduction assay as described above.

O=C(O)P(=O)(O)O [Foscarnet, foscarnet]
IC50 (72 h, isolate HPG053, HSV-1 pol L802R + A834S (2405T>G, 2500G>T), also TK R176W, read-out: Drug susceptibility (IC50 value)): 626 µM | IC50 (isolate HPG002, HSV-1 pol E992K (2974G>A), also TK insert (G) nt 430-436, pol A1169T, read-out: Drug susceptibility (IC50 value)): < 50 µM | IC50 (isolate HPG002, HSV-1 pol E992K (2974G>A), also TK insert (G) nt 430-436, pol A1169T, read-out: Drug susceptibility Foscarnet (FOS)): < 250 µM | IC50 (isolate HPG003, HSV-1 TK Y172S (515A>C), read-out: Drug susceptibility (IC50 value)): 79 µM | IC50 (isolate HPG003, HSV-1 TK Y172S (515A>C), read-out: Drug susceptibility Foscarnet (FOS)): < 250 µM | IC50 (isolate HPG005, HSV-1 TK A37V (110C>T), read-out: Drug susceptibility (IC50 value)): 36.9 µM | IC50 (isolate HPG005, HSV-1 TK A37V (110C>T), read-out: Drug susceptibility Foscarnet (FOS)): < 250 µM | IC50 (isolate HPG008, HSV-1 TK V204G (611T>G), read-out: Drug susceptibility (IC50 value)): 58.3 µM | IC50 (isolate HPG008, HSV-1 TK V204G (611T>G), read-out: Drug susceptibility Foscarnet (FOS)): < 250 µM | IC50 (isolate HPG009, HSV-1 pol E992K (2974G>A), also pol A1169T, read-out: Drug susceptibility (IC50 value)): 77.5 µM | IC50 (isolate HPG009, HSV-1 pol E992K (2974G>A), also pol A1169T, read-out: Drug susceptibility Foscarnet (FOS)): < 250 µM | IC50 (isolate HPG010, HSV-1 TK Q125* (373C>T), read-out: Drug susceptibility (IC50 value)): 46.7 µM | IC50 (isolate HPG010, HSV-1 TK Q125* (373C>T), read-out: Drug susceptibility Foscarnet (FOS)): < 250 µM | IC50 (isolate HPG011, HSV-1 TK Q125* (373C>T), read-out: Drug susceptibility (IC50 value)): 56 µM | IC50 (isolate HPG011, HSV-1 TK Q125* (373C>T), read-out: Drug susceptibility Foscarnet (FOS)): < 250 µM | IC50 (isolate HPG013, HSV-1 TK M121I (363G>A), read-out: Drug susceptibility (IC50 value)): 78 µM | IC50 (isolate HPG013, HSV-1 TK M121I (363G>A), read-out: Drug susceptibility Foscarnet (FOS)): < 250 µM | IC50 (isolate HPG013, HSV-1 pol D83A (248A>C), also TK M121I, pol A1169T, read-out: Drug susceptibility (IC50 value)): 78 µM | IC50 (isolate HPG013, HSV-1 pol D83A (248A>C), also TK M121I, pol A1169T, read-out: Drug susceptibility Foscarnet (FOS)): < 250 µM | IC50 (isolate HPG014, HSV-1 pol A1115T (3343G>A), read-out: Drug susceptibility (IC50 value)): 141 µM | IC50 (isolate HPG014, HSV-1 pol A1115T (3343G>A), read-out: Drug susceptibility Foscarnet (FOS)): < 250 µM | IC50 (isolate HPG014, HSV-1 pol R993C (2977C>T), read-out: Drug susceptibility (IC50 value)): 141 µM | IC50 (isolate HPG014, HSV-1 pol R993C (2977C>T), read-out: Drug susceptibility Foscarnet (FOS)): < 250 µM | IC50 (isolate HPG014, HSV-1 pol T54A (160A>G), read-out: Drug susceptibility (IC50 value)): 141 µM | IC50 (isolate HPG014, HSV-1 pol T54A (160A>G), read-out: Drug susceptibility Foscarnet (FOS)): < 250 µM | IC50 (isolate HPG015, HSV-1 pol 966stop or F965_I966insF (2892_2893insT to 2895_2896insT), read-out: Drug susceptibility (IC50 value)): 162 µM | IC50 (isolate HPG015, HSV-1 pol 966stop or F965_I966insF (2892_2893insT to 2895_2896insT), read-out: Drug susceptibility Foscarnet (FOS)): < 250 µM | IC50 (isolate HPG018, HSV-1 TK frameshift (881delC to 885delC), read-out: Drug susceptibility (IC50 value)): 66.7 µM | IC50 (isolate HPG018, HSV-1 TK frameshift (881delC to 885delC), read-out: Drug susceptibility Foscarnet (FOS)): < 250 µM | IC50 (isolate HPG018, HSV-1 pol P1199T (3595C>A), also TK deletion (C) nt 881-885, pol A1169T, read-out: Drug susceptibility (IC50 value)): 66.7 µM | IC50 (isolate HPG018, HSV-1 pol P1199T (3595C>A), also TK deletion (C) nt 881-885, pol A1169T, read-out: Drug susceptibility Foscarnet (FOS)): < 250 µM | IC50 (isolate HPG019, HSV-1 pol K750T (2249A>C), also TK deletion (G) nt 430-436, pol A1169T, read-out: Drug susceptibility (IC50 value)): 190 µM | IC50 (isolate HPG019, HSV-1 pol K750T (2249A>C), also TK deletion (G) nt 430-436, pol A1169T, read-out: Drug susceptibility Foscarnet (FOS)): < 250 µM | IC50 (isolate HPG020, HSV-1 pol S911N (2732G>A), also pol A1169T, read-out: Drug susceptibility (IC50 value)): 99.3 µM | IC50 (isolate HPG020, HSV-1 pol S911N (2732G>A), also pol A1169T, read-out: Drug susceptibility Foscarnet (FOS)): < 250 µM | IC50 (isolate HPG021, HSV-1 pol R681Q (2042G>A), also TK deletion (G) nt 430-436, read-out: Drug susceptibility (IC50 value)): 156 µM | IC50 (isolate HPG021, HSV-1 pol R681Q (2042G>A), also TK deletion (G) nt 430-436, read-out: Drug susceptibility Foscarnet (FOS)): < 250 µM | IC50 (isolate HPG021, HSV-1 pol T839A (2515A>G), also TK deletion (G) nt 430-436, read-out: Drug susceptibility (IC50 value)): 156 µM | IC50 (isolate HPG021, HSV-1 pol T839A (2515A>G), also TK deletion (G) nt 430-436, read-out: Drug susceptibility Foscarnet (FOS)): < 250 µM | IC50 (isolate HPG025, HSV-1 pol E850Q (2548G>C), also TK R216C, read-out: Drug susceptibility (IC50 value)): 99.1 µM | IC50 (isolate HPG025, HSV-1 pol E850Q (2548G>C), also TK R216C, read-out: Drug susceptibility Foscarnet (FOS)): < 250 µM | IC50 (isolate HPG026, HSV-1 pol E850Q (2548G>C), also TK R216C, pol A1169T, read-out: Drug susceptibility (IC50 value)): 68.3 µM | IC50 (isolate HPG026, HSV-1 pol E850Q (2548G>C), also TK R216C, pol A1169T, read-out: Drug susceptibility Foscarnet (FOS)): < 250 µM | IC50 (isolate HPG027, HSV-1 TK V204G (611T>G), also pol S914L, A1169AT, read-out: Drug susceptibility (IC50 value)): 216 µM | IC50 (isolate HPG027, HSV-1 TK V204G (611T>G), also pol S914L, A1169AT, read-out: Drug susceptibility Foscarnet (FOS)): < 250 µM | IC50 (isolate HPG027, HSV-1 pol S914L (2741C>T), also TK V204G, pol A1169T, read-out: Drug susceptibility (IC50 value)): 216 µM | IC50 (isolate HPG027, HSV-1 pol S914L (2741C>T), also TK V204G, pol A1169T, read-out: Drug susceptibility Foscarnet (FOS)): < 250 µM | IC50 (isolate HPG029, HSV-1 TK Y172S (515A>C), read-out: Drug susceptibility (IC50 value)): 111 µM | IC50 (isolate HPG029, HSV-1 TK Y172S (515A>C), read-out: Drug susceptibility Foscarnet (FOS)): < 250 µM | IC50 (isolate HPG031, HSV-1 pol E1120A (3359A>C), also a TK resistance mutation (footnote e), read-out: Drug susceptibility (IC50 value)): 108 µM | IC50 (isolate HPG031, HSV-1 pol E1120A (3359A>C), also a TK resistance mutation (footnote e), read-out: Drug susceptibility Foscarnet (FOS)): < 250 µM | IC50 (isolate HPG031, HSV-1 pol G139R (415G>C or 415G>A), also a TK resistance mutation (footnote e), read-out: Drug susceptibility (IC50 value)): 108 µM | IC50 (isolate HPG031, HSV-1 pol G139R (415G>C or 415G>A), also a TK resistance mutation (footnote e), read-out: Drug susceptibility Foscarnet (FOS)): < 250 µM | IC50 (isolate HPG032, HSV-1 TK 183* (437_438insA), read-out: Drug susceptibility (IC50 value)): 100 µM | IC50 (isolate HPG032, HSV-1 TK 183* (437_438insA), read-out: Drug susceptibility Foscarnet (FOS)): < 250 µM
